Reference: ChEMBL document CHEMBL3856212, “Synthesis, anti-proliferative and genotoxicity studies of 6-chloro-5-(2-substituted-ethyl)-1,3-dihydro-2H-indol-2-ones and 6-chloro-5-(2-chloroethyl)-3-(alkyl/ary-2-ylidene)indolin-2-ones” (Eur J Med Chem, 2016)

How the values were obtained:
[1] = Cytotoxicity against human HL-60(TB) cells assessed as growth inhibition after 48 hrs by SRB assay; assay type: functional; settings: HL-60, 48 h; for CC50: read-out: LD50 (the source's name)
[2] = Cytotoxicity against human SR cells assessed as growth inhibition after 48 hrs by SRB assay; assay type: functional; settings: for CC50: read-out: LD50 (the source's name)
[3] = Cytotoxicity against human A549 cells assessed as growth inhibition after 48 hrs by SRB assay; assay type: functional; settings: A549, 48 h; for CC50: read-out: LD50 (the source's name)
[4] = Cytotoxicity against human HOP62 cells assessed as growth inhibition after 48 hrs by SRB assay; assay type: functional; settings: HOP-62, 48 h; for CC50: read-out: LD50 (the source's name)
[5] = Cytotoxicity against human NCI-H522 cells assessed as growth inhibition after 48 hrs by SRB assay; assay type: functional; settings: NCI-H522, 48 h; for CC50: read-out: LD50 (the source's name)
[6] = Cytotoxicity against human COLO205 cells assessed as growth inhibition after 48 hrs by SRB assay; assay type: functional; settings: COLO 205, 48 h; for CC50: read-out: LD50 (the source's name)
[7] = Cytotoxicity against human HCC2998 cells assessed as growth inhibition after 48 hrs by SRB assay; assay type: functional; settings: HCC 2998, 48 h; for CC50: read-out: LD50 (the source's name)
[8] = Cytotoxicity against human HT-29 cells assessed as growth inhibition after 48 hrs by SRB assay; assay type: functional; settings: HT-29, 48 h; for CC50: read-out: LD50 (the source's name)
[9] = Cytotoxicity against human KM12 cells assessed as growth inhibition after 48 hrs by SRB assay; assay type: functional; settings: KM12, 48 h; for CC50: read-out: LD50 (the source's name)
[10] = Cytotoxicity against human SNB75 cells assessed as growth inhibition after 48 hrs by SRB assay; assay type: functional; settings: SNB-75, 48 h; for CC50: read-out: LD50 (the source's name)
[11] = Cytotoxicity against human SK-MEL-28 cells assessed as growth inhibition after 48 hrs by SRB assay; assay type: functional; settings: SK-MEL-28, 48 h; for CC50: read-out: LD50 (the source's name)
[12] = Cytotoxicity against human UACC62 cells assessed as growth inhibition after 48 hrs by SRB assay; assay type: functional; settings: UACC-62, 48 h; for CC50: read-out: LD50 (the source's name)
[13] = Cytotoxicity against human OVCAR4 cells assessed as growth inhibition after 48 hrs by SRB assay; assay type: functional; settings: OVCAR-4, 48 h; for CC50: read-out: LD50 (the source's name)
[14] = Cytotoxicity against human RXF393 cells assessed as growth inhibition after 48 hrs by SRB assay; assay type: functional; settings: RXF 393, 48 h; for CC50: read-out: LD50 (the source's name)
[15] = Cytotoxicity against human BT549 cells assessed as growth inhibition after 48 hrs by SRB assay; assay type: functional; settings: BT-549, 48 h; for CC50: read-out: LD50 (the source's name)
[16] = Cytotoxicity against human HOP62 cells assessed as assessed as growth inhibition at 10^-5 M after 48 hrs by SRB assay relative to control; assay type: functional; settings: HOP-62, 48 h, read-out: GI
[17] = Cytotoxicity against human NCI-H522 cells assessed as assessed as growth inhibition at 10^-5 M after 48 hrs by SRB assay relative to control; assay type: functional; settings: NCI-H522, 48 h, read-out: GI
[18] = Cytotoxicity against human HCT116 cells assessed as assessed as growth inhibition at 10^-5 M after 48 hrs by SRB assay relative to control; assay type: functional; settings: HCT-116, 48 h, read-out: GI
[19] = Cytotoxicity against human KM12 cells assessed as assessed as growth inhibition at 10^-5 M after 48 hrs by SRB assay relative to control; assay type: functional; settings: KM12, 48 h, read-out: GI
[20] = Cytotoxicity against human SF295 cells assessed as assessed as growth inhibition at 10^-5 M after 48 hrs by SRB assay relative to control; assay type: functional; settings: SF-295, 48 h, read-out: GI
[21] = Cytotoxicity against human SNB75 cells assessed as assessed as growth inhibition at 10^-5 M after 48 hrs by SRB assay relative to control; assay type: functional; settings: SNB-75, 48 h, read-out: GI
[22] = Cytotoxicity against human SK-MEL-2 cells assessed as assessed as growth inhibition at 10^-5 M after 48 hrs by SRB assay relative to control; assay type: functional; settings: SK-MEL-2, 48 h, read-out: GI
[23] = Cytotoxicity against human SK-MEL-28 cells assessed as assessed as growth inhibition at 10^-5 M after 48 hrs by SRB assay relative to control; assay type: functional; settings: SK-MEL-28, 48 h, read-out: GI
[24] = Cytotoxicity against human SK-MEL-5 cells assessed as assessed as growth inhibition at 10^-5 M after 48 hrs by SRB assay relative to control; assay type: functional; settings: SK-MEL-5, 48 h, read-out: GI
[25] = Cytotoxicity against human UACC257 cells assessed as assessed as growth inhibition at 10^-5 M after 48 hrs by SRB assay relative to control; assay type: functional; settings: UACC-257, 48 h, read-out: GI
[26] = Cytotoxicity against human IGROV1 cells assessed as assessed as growth inhibition at 10^-5 M after 48 hrs by SRB assay relative to control; assay type: functional; settings: IGROV-1, 48 h, read-out: GI
[27] = Cytotoxicity against human OVCAR3 cells assessed as assessed as growth inhibition at 10^-5 M after 48 hrs by SRB assay relative to control; assay type: functional; settings: OVCAR-3, 48 h, read-out: GI
[28] = Cytotoxicity against human SKOV3 cells assessed as assessed as growth inhibition at 10^-5 M after 48 hrs by SRB assay relative to control; assay type: functional; settings: SK-OV-3, 48 h, read-out: GI
[29] = Cytotoxicity against human ACHN cells assessed as assessed as growth inhibition at 10^-5 M after 48 hrs by SRB assay relative to control; assay type: functional; settings: read-out: GI
[30] = Cytotoxicity against human Caki1 cells assessed as assessed as growth inhibition at 10^-5 M after 48 hrs by SRB assay relative to control; assay type: functional; settings: CAKI-1, 48 h, read-out: GI
[31] = Cytotoxicity against human UO31 cells assessed as assessed as growth inhibition at 10^-5 M after 48 hrs by SRB assay relative to control; assay type: functional; settings: UO-31, 48 h, read-out: GI
Mus musculus [32] = species on record: Mus musculus; assay: Genotoxicity in mouse EAC cells at 250 uM after 24 hrs by micronucleus assay (reference value: 3.5 +/- 0.30%); assay type: toxicity, cell-based; settings: ehrlich
Mus musculus [33] = species on record: Mus musculus; assay: Genotoxicity in mouse EAC cells at 375 uM after 24 hrs by micronucleus assay (reference value: 3.5 +/- 0.30%); assay type: toxicity, cell-based; settings: ehrlich
[34] = Cytotoxicity against human NCI-H322M cells assessed as assessed as growth inhibition at 10^-5 M after 48 hrs by SRB assay relative to control; assay type: functional; settings: read-out: GI

O=C1Cc2cc(CCn3ccnc3)c(Cl)cc2N1
GI50 [1]: 6320 nM | TGI [1]: > 1000 nM | CC50 [1]: > 1000 nM | GI50 [2]: 9240 nM | TGI [2]: > 1000 nM | CC50 [2]: > 1000 nM | GI50 [3]: 7630 nM | TGI [3]: > 1000 nM | CC50 [3]: > 1000 nM | GI50 [4]: 3320 nM | TGI [4]: > 1000 nM | CC50 [4]: > 1000 nM | GI50 [5]: 4740 nM | TGI [5]: 4790 nM | CC50 [5]: > 1000 nM | GI50 [6]: 1510 nM | TGI [6]: > 1000 nM | CC50 [6]: > 1000 nM | GI50 [7]: 3220 nM | TGI [7]: > 1000 nM | CC50 [7]: > 1000 nM | GI50 [8]: 1000 nM | TGI [8]: > 1000 nM | CC50 [8]: > 1000 nM | GI50 [9]: 3580 nM | TGI [9]: 9840 nM | CC50 [9]: > 1000 nM | GI50 [10]: 2160 nM | TGI [10]: > 1000 nM | CC50 [10]: > 1000 nM | GI50 [11]: 2970 nM | TGI [11]: > 1000 nM | CC50 [11]: > 1000 nM | GI50 [12]: 7680 nM | TGI [12]: > 1000 nM | CC50 [12]: > 1000 nM | GI50 [13]: 4500 nM | TGI [13]: > 1000 nM | CC50 [13]: > 1000 nM | GI50 [14]: 6280 nM | TGI [14]: > 1000 nM | CC50 [14]: > 1000 nM | GI50 [15]: 9510 nM | TGI [15]: > 1000 nM | CC50 [15]: > 1000 nM | inhibition of growth at 10 µM [16]: 33.1% | inhibition of growth at 10 µM [17]: 55.2% | inhibition of growth at 10 µM [18]: 28% | inhibition of growth at 10 µM [19]: 67.8% | inhibition of growth at 10 µM [20]: 36.6% | inhibition of growth at 10 µM [21]: 31.7% | inhibition of growth at 10 µM [22]: 19.3% | inhibition of growth at 10 µM [23]: 32.2% | inhibition of growth at 10 µM [24]: 67.8% | inhibition of growth at 10 µM [25]: 39.8% | inhibition of growth at 10 µM [26]: 13.3% | inhibition of growth at 10 µM [27]: 36.5% | inhibition of growth at 10 µM [28]: 21.4% | inhibition of growth at 10 µM [29]: 21.7% | inhibition of growth at 10 µM [30]: 36.3% | inhibition of growth at 10 µM [31]: 39.3% | Activity (Mus musculus [32]): 2.83% | Activity (Mus musculus [33]): 3.43% | inhibition of growth at 10 µM [34]: 9.68%

O=C1Cc2cc(CCN3CCNCC3)c(Cl)cc2N1
GI50 [1]: 4300 nM | TGI [1]: > 1000 nM | CC50 [1]: > 1000 nM | GI50 [2]: 6200 nM | TGI [2]: > 1000 nM | CC50 [2]: > 1000 nM | GI50 [3]: 6850 nM | TGI [3]: > 1000 nM | CC50 [3]: > 1000 nM | GI50 [4]: 1930 nM | TGI [4]: > 1000 nM | CC50 [4]: > 1000 nM | GI50 [5]: 4880 nM | TGI [5]: > 1000 nM | CC50 [5]: > 1000 nM | GI50 [6]: 1970 nM | TGI [6]: > 1000 nM | CC50 [6]: > 1000 nM | GI50 [7]: 4660 nM | TGI [7]: > 1000 nM | CC50 [7]: > 1000 nM | GI50 [8]: 1000 nM | TGI [8]: > 1000 nM | CC50 [8]: > 1000 nM | GI50 [9]: 3960 nM | TGI [9]: > 1000 nM | CC50 [9]: > 1000 nM | GI50 [10]: 1560 nM | TGI [10]: 7540 nM | CC50 [10]: > 1000 nM | GI50 [11]: 3700 nM | TGI [11]: > 1000 nM | CC50 [11]: > 1000 nM | GI50 [12]: 6540 nM | TGI [12]: > 1000 nM | CC50 [12]: > 1000 nM | GI50 [13]: 8780 nM | TGI [13]: > 1000 nM | CC50 [13]: > 1000 nM | GI50 [14]: 6890 nM | TGI [14]: > 1000 nM | CC50 [14]: > 1000 nM | GI50 [15]: 8180 nM | TGI [15]: > 1000 nM | CC50 [15]: > 1000 nM | inhibition of growth at 10 µM [16]: 43.7% | inhibition of growth at 10 µM [17]: 73.6% | inhibition of growth at 10 µM [18]: 34.8% | inhibition of growth at 10 µM [19]: 70.4% | inhibition of growth at 10 µM [20]: 46.4% | inhibition of growth at 10 µM [21]: 38.6% | inhibition of growth at 10 µM [22]: 53.9% | inhibition of growth at 10 µM [23]: 42.2% | inhibition of growth at 10 µM [24]: 65.4% | inhibition of growth at 10 µM [25]: 48% | inhibition of growth at 10 µM [26]: 11% | inhibition of growth at 10 µM [27]: 17.2% | inhibition of growth at 10 µM [28]: 33.2% | inhibition of growth at 10 µM [29]: 35.5% | inhibition of growth at 10 µM [30]: 37.2% | inhibition of growth at 10 µM [31]: 36.8% | Activity (Mus musculus [32]): 4.43% | Activity (Mus musculus [33]): 6.33% | inhibition of growth at 10 µM [34]: 19.3%
